Tested on: 935938-334-R-J1-PDC spheroids with HUVEC/MSC, viability
Assay: Anticancer human tumor 935938-334-R-J1-PDC patient-derived small intestine adenocarcinoma cell line growth inhibition [PI3K]
Details: for IC50: curve of first compound; for viability, T/C: stronger effect = lower value
How it was run: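 Agents were dosed from a top concentration near clinical Cmax (otherwise 10 microM) in half-log decrements, alone or combined with PI3K inhibitors. The spheroids contain tumor cells plus endothelial (HUVEC) and MSC stroma; viability is measured.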

[1] = second compound 0.00316 µM, first compound 0.0316 µM
[2] = second compound 0.00316 µM, first compound 0.1 µM
[3] = second compound 0.00316 µM, first compound 0.316 µM
[4] = second compound 0.00316 µM, first compound 1 µM
[5] = second compound 0.00316 µM, first compound 3.16 µM
[6] = second compound 0.00316 µM, first compound 10 µM
[7] = second compound 0.01 µM, first compound 0.0316 µM
[8] = second compound 0.01 µM, first compound 0.1 µM
[9] = second compound 0.01 µM, first compound 0.316 µM
[10] = second compound 0.01 µM, first compound 1 µM
[11] = second compound 0.01 µM, first compound 3.16 µM
[12] = second compound 0.01 µM, first compound 10 µM
[13] = second compound 0.0316 µM, first compound 0.0316 µM
[14] = second compound 0.0316 µM, first compound 0.1 µM
[15] = second compound 0.0316 µM, first compound 0.316 µM
[16] = second compound 0.0316 µM, first compound 1 µM
[17] = second compound 0.0316 µM, first compound 3.16 µM
[18] = second compound 0.0316 µM, first compound 10 µM
[19] = second compound 0.1 µM, first compound 0.0316 µM
[20] = second compound 0.1 µM, first compound 0.1 µM
[21] = second compound 0.1 µM, first compound 0.316 µM
[22] = second compound 0.1 µM, first compound 1 µM
[23] = second compound 0.1 µM, first compound 3.16 µM
[24] = second compound 0.1 µM, first compound 10 µM
[25] = second compound 0.316 µM, first compound 0.0316 µM
[26] = second compound 0.316 µM, first compound 0.1 µM
[27] = second compound 0.316 µM, first compound 0.316 µM
[28] = second compound 0.316 µM, first compound 1 µM
[29] = second compound 0.316 µM, first compound 3.16 µM
[30] = second compound 0.316 µM, first compound 10 µM
[31] = second compound 1 µM, first compound 0.0316 µM
[32] = second compound 1 µM, first compound 0.1 µM
[33] = second compound 1 µM, first compound 0.316 µM
[34] = second compound 1 µM, first compound 1 µM
[35] = second compound 1 µM, first compound 3.16 µM
[36] = second compound 1 µM, first compound 10 µM
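Note: compound exposure lasted seven days before viability was read.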
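Throughout, for viability, T/C: percent of vehicle DMSO treated spheroid viability so 100% = untreated.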

CC(Cn1ccc(-c2ccc(C#N)c(Cl)c2)n1)NC(=O)c1cc(C(C)O)[nH]n1 (stereo unspecified) + CC(Nc1ccc2c(c1)OCCn1cc(N3C(=O)OCC3C(F)F)nc1-2)C(N)=O
IC50 (second compound 0.00316 µM): > 10000 nM | IC50 (second compound 0.01 µM): > 10000 nM | IC50 (second compound 0.0316 µM): > 10000 nM | IC50 (second compound 0.1 µM): 8810 nM | IC50 (second compound 0.316 µM): 7050 nM | IC50 (second compound 1 µM): 4180 nM | viability, T/C [1]: 66.3% | viability, T/C [2]: 106% | viability, T/C [3]: 91.7% | viability, T/C [4]: 82.5% | viability, T/C [5]: 105% | viability, T/C [6]: 53.2% | viability, T/C [7]: 89% | viability, T/C [8]: 72.4% | viability, T/C [9]: 97.3% | viability, T/C [10]: 119% | viability, T/C [11]: 96.7% | viability, T/C [12]: 56.6% | viability, T/C [13]: 78.5% | viability, T/C [14]: 89.6% | viability, T/C [15]: 96.6% | viability, T/C [16]: 94.1% | viability, T/C [17]: 90.5% | viability, T/C [18]: 59.9% | viability, T/C [19]: 61.6% | viability, T/C [20]: 60.9% | viability, T/C [21]: 83.8% | viability, T/C [22]: 105% | viability, T/C [23]: 84.9% | viability, T/C [24]: 46.4% | viability, T/C [25]: 96.7% | viability, T/C [26]: 81.7% | viability, T/C [27]: 68.2% | viability, T/C [28]: 82.4% | viability, T/C [29]: 75.3% | viability, T/C [30]: 39.2% | viability, T/C [31]: 64.9% | viability, T/C [32]: 43% | viability, T/C [33]: 83.7% | viability, T/C [34]: 75.5% | viability, T/C [35]: 49.6% | viability, T/C [36]: 29%

CC1(C)CCC(Nc2ncc(C(F)(F)F)c(-c3c[nH]c4c(P(C)(C)=O)c(C#N)ccc34)n2)CN1 (stereo unspecified) + CC(Nc1ccc2c(c1)OCCn1cc(N3C(=O)OCC3C(F)F)nc1-2)C(N)=O
IC50 (second compound 0.00316 µM): < 31.6 nM | IC50 (second compound 0.01 µM): < 31.6 nM | IC50 (second compound 0.0316 µM): < 31.6 nM | IC50 (second compound 0.1 µM): < 31.6 nM | IC50 (second compound 0.316 µM): < 31.6 nM | IC50 (second compound 1 µM): < 31.6 nM | viability, T/C [1]: 46.2% | viability, T/C [2]: 35% | viability, T/C [3]: 29.9% | viability, T/C [4]: 33.8% | viability, T/C [5]: 25.8% | viability, T/C [6]: 7.62% | viability, T/C [7]: 42.7% | viability, T/C [8]: 36.3% | viability, T/C [9]: 27.2% | viability, T/C [10]: 28.6% | viability, T/C [11]: 30.4% | viability, T/C [12]: 5.01% | viability, T/C [13]: 42.5% | viability, T/C [14]: 40.5% | viability, T/C [15]: 33.8% | viability, T/C [16]: 27.1% | viability, T/C [17]: 35.5% | viability, T/C [18]: 6.2% | viability, T/C [19]: 36.8% | viability, T/C [20]: 39.5% | viability, T/C [21]: 30% | viability, T/C [22]: 29.6% | viability, T/C [23]: 31.3% | viability, T/C [24]: 4.61% | viability, T/C [25]: 37.5% | viability, T/C [26]: 29.5% | viability, T/C [27]: 27.2% | viability, T/C [28]: 29.2% | viability, T/C [29]: 23.1% | viability, T/C [30]: 6.76% | viability, T/C [31]: 29.5% | viability, T/C [32]: 24% | viability, T/C [33]: 24.7% | viability, T/C [34]: 22.9% | viability, T/C [35]: 18.3% | viability, T/C [36]: 3.56%

Cn1nccc1Nc1nccc(-c2ccn(C(CO)c3ccc(Cl)c(F)c3)c(=O)c2)n1 (stereo unspecified) + CC(Nc1ccc2c(c1)OCCn1cc(N3C(=O)OCC3C(F)F)nc1-2)C(N)=O
IC50 (second compound 0.00316 µM): 1400 nM | IC50 (second compound 0.01 µM): 835 nM | IC50 (second compound 0.0316 µM): 1430 nM | IC50 (second compound 0.1 µM): 777 nM | IC50 (second compound 0.316 µM): 505 nM | IC50 (second compound 1 µM): 147 nM | viability, T/C [1]: 101% | viability, T/C [2]: 92.6% | viability, T/C [3]: 70.6% | viability, T/C [4]: 57.2% | viability, T/C [5]: 37.5% | viability, T/C [6]: 37% | viability, T/C [7]: 99.9% | viability, T/C [8]: 82.1% | viability, T/C [9]: 73.8% | viability, T/C [10]: 41.4% | viability, T/C [11]: 38.9% | viability, T/C [12]: 33.7% | viability, T/C [13]: 108% | viability, T/C [14]: 81.9% | viability, T/C [15]: 66% | viability, T/C [16]: 59.5% | viability, T/C [17]: 38.8% | viability, T/C [18]: 31.4% | viability, T/C [19]: 87.6% | viability, T/C [20]: 71.7% | viability, T/C [21]: 63.8% | viability, T/C [22]: 48.6% | viability, T/C [23]: 30.3% | viability, T/C [24]: 25.8% | viability, T/C [25]: 86.5% | viability, T/C [26]: 71.2% | viability, T/C [27]: 53% | viability, T/C [28]: 44.7% | viability, T/C [29]: 29.7% | viability, T/C [30]: 21.6% | viability, T/C [31]: 70.3% | viability, T/C [32]: 55.1% | viability, T/C [33]: 39.5% | viability, T/C [34]: 30.1% | viability, T/C [35]: 23.2% | viability, T/C [36]: 23.4%

Reference: PubChem BioAssay AID1963966 (Molecular Pharmacology Branch, DTP, NCI, 2024)
